Laboratory results from doi:10.1101/2020.11.19.390633v1 (biorxiv, 2020).

Target: murine wtIDH1 (KPC cells) (Mus musculus, UniProt O88844)
Assay: cell-based IDH activity assay, NADPH synthesis, after IDH2 siRNA
Settings: KPC murine cells, […] MgSO4, […] h; allosteric

Sequence of murine wtIDH1 (KPC cells) (O88844 2-414): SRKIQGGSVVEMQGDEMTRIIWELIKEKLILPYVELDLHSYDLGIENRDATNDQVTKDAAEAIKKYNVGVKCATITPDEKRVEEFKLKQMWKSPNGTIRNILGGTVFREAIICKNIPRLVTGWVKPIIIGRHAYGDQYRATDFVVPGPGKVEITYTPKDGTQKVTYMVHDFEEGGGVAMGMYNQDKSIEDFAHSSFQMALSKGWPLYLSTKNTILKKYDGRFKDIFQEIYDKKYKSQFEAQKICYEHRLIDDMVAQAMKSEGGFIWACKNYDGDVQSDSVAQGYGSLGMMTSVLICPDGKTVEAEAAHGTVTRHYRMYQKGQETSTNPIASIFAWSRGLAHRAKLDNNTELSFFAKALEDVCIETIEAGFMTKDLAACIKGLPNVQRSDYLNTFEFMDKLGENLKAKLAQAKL

EC50: 110 ± 2 nM
Structure (SMILES): N#Cc1ccnc(N2C(=O)CC[C@H]2C(=O)N(c2cncc(F)c2)[C@H](C(=O)NC2CC(F)(F)C2)c2ccccc2Cl)c1 [AG-120]
